These results are taken from ChEMBL document CHEMBL1806478, “Synthesis of novel inhibitors of β-glucuronidase based on benzothiazole skeleton and study of their binding affinity by molecular docking” (Bioorg Med Chem, 2011).

The source made the active and inactive calls. The calls are words filed in the database; no cut-off is given here.

Series [1] addresses T1, Beta-glucuronidase (Bos taurus) (UniProt A3KMY8).
T1 sequence (whole entry): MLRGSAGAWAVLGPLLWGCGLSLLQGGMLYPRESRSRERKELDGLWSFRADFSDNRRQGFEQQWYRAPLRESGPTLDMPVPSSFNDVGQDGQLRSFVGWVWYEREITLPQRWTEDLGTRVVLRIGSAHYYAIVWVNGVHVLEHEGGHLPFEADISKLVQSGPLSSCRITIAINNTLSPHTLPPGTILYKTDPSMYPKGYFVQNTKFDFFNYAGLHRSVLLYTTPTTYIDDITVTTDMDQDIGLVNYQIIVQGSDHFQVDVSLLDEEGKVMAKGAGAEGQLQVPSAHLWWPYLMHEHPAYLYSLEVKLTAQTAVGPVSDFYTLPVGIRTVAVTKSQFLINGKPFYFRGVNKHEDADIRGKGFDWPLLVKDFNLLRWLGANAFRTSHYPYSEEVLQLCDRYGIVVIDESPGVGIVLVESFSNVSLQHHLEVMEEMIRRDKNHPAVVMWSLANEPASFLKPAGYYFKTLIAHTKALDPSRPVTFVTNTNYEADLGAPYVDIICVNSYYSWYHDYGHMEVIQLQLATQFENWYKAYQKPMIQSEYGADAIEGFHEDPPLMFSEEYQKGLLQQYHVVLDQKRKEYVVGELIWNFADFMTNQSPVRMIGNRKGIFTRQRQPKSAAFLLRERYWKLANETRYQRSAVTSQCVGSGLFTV
Nature of the series: Inhibition of bovine liver beta glucuronidase assessed as p-nitrophenol formation at 0.2 mM after 30 mins by spectrophotometric method.

Series [2] can be described thus: Inhibition of alpha-chymotrypsin.
The nature of series [3]: Inhibition of urease.
The target of series [4] is T1, Beta-glucuronidase (Bos taurus). Nature of the series: (§1) Inhibition of bovine liver beta glucuronidase assessed as p-nitrophenol formation after 30 mins by spectrophotometric method.
Another series addresses T2, Beta-glucuronidase (Bos taurus, UniProt A3KMY8).
T2 sequence (A3KMY8 whole entry): T1 sequence (whole entry)
The series is described as §1.

The subject of the next series is 3T3-L1. The series is described as follows: Cytotoxic activity against mouse 3T3L1 cells assessed as cell viability at 1 to 20 ug/ml after 48 hrs by MTT assay. The series is classed as cell-based. The following applies: 3t3-l1, 48 h.
Another series has as its system CC-1. The series is described as follows: Cytotoxic activity against Wistar rat CC1 cells assessed as cell viability at 1 to 20 ug/ml after 48 hrs by MTT assay. Type of series: cell-based. The following applies: cc-1, 48 h.
Series [5] concerns the target T1, Beta-glucuronidase (Bos taurus). The series is described as follows: Ratio of D-saccharic acid 1,4-lactone IC50 to compound IC50 for bovine liver beta glucuronidase.

What is called inhibition is the drop in the measured response relative to a control, in per cent. In the case of `c1csc(-c2nc3ccccc3s2)c1`, in series [1], the inhibition was below 50%. Also, the inhibition entry in series [2] and in series [3] was “inactive” in each case.

For `Clc1ccc(-c2nc3ccccc3s2)c(Cl)c1`, the inhibition entry in series [4], in series [2] and in series [3] was “inactive” throughout.

As a reminder, the IC50 is the midpoint of a concentration-inhibition curve. `Oc1ccc(-c2nc3ccccc3s2)cc1`: the 50% inhibitory concentration (IC50) at Beta-glucuronidase came to 8.9 µM. Moreover, the inhibition result in series [2] and in series [3] was “inactive” throughout. The Activity entry with 3T3-L1 and in the series on CC-1 was “Non-toxic” throughout.

Regarding `Oc1ccc(Cl)cc1-c1nc2ccccc2s1`, in series [1], the inhibition is below 50%. For the same molecule, the inhibition entry in series [2] and in series [3] was “inactive” in each case.

Turning to `c1cncc(-c2nc3ccccc3s2)c1`, the inhibition entry in series [4], in series [2] and in series [3] was “inactive” in each case.

On to `Fc1ccccc1-c1nc2ccccc2s1`, for which the inhibition result in series [4], in series [2] and in series [3] was “inactive” throughout.

`CCOc1ccc(-c2nc3ccccc3s2)cc1`: the inhibition entry in series [4], in series [2] and in series [3] was “inactive” throughout.

Regarding `Oc1ccccc1-c1nc2ccccc2s1`, on Beta-glucuronidase, the IC50 came to 4.23 µM. The inhibition result in series [2] and in series [3] was “inactive” each time. The Activity result in the series on 3T3-L1 and with CC-1 was “Non-toxic” each time. For the same molecule, in series [5], the Ratio IC50 is 12.

On to `COc1cccc(-c2nc3ccccc3s2)c1O`, for which the inhibition in series [1] is below 50%. In addition, the inhibition result in series [2] and in series [3] was “inactive” throughout.

Consider `Cc1ccc(-c2nc3ccccc3s2)cc1`, for which the inhibition in series [1] is below 50%. For the same molecule, the inhibition result in series [2] and in series [3] was “inactive” throughout.

On to `Oc1ccc(O)c(-c2nc3ccccc3s2)c1`, for which, at Beta-glucuronidase, the IC50 turned out to be 8.9 µM. The inhibition entry in series [2] and in series [3] was “inactive” throughout. Besides, the Activity result in the series with 3T3-L1 and with CC-1 was “Non-toxic” each time.

For the molecule `Oc1ccc(-c2nc3ccccc3s2)c(O)c1`, the half-maximal inhibitory concentration (IC50) at Beta-glucuronidase stood at 19.4 µM. For the same molecule, the inhibition entry in series [2] and in series [3] was “inactive” throughout. In addition, the Activity entry in the series with 3T3-L1 and in the series on CC-1 was “Non-toxic” each time.

As to `Clc1cccc(-c2nc3ccccc3s2)c1`, the inhibition in series [1] is below 50%. Moreover, the inhibition entry in series [2] and in series [3] was “inactive” throughout.

In the case of `Oc1ccc(-c2nc3ccccc3s2)cc1O`, the 50% inhibitory concentration (IC50) at Beta-glucuronidase was found to be 94 µM. The inhibition entry in series [2] and in series [3] was “inactive” in each case. For the same molecule, the Activity result in the series with 3T3-L1 and in the series on CC-1 was “Non-toxic” throughout.

In the case of `c1ccc2cc(-c3nc4ccccc4s3)ccc2c1`, the inhibition in series [1] was below 50%. Besides, the inhibition result in series [2] and in series [3] was “inactive” in each case.

Turning to `Oc1cccc(-c2nc3ccccc3s2)c1`, at Beta-glucuronidase, the IC50 amounted to 36.1 µM. The inhibition entry in series [2] and in series [3] was “inactive” each time. Further, the Activity result in the series with 3T3-L1 and in the series with CC-1 was “Non-toxic” throughout.

`Clc1ccc(-c2nc3ccccc3s2)cc1`: the inhibition in series [1] was below 50%. In addition, the inhibition entry in series [2] and in series [3] was “inactive” each time.

On to `CN(C)c1ccc(-c2nc3ccccc3s2)cc1`, for which the inhibition entry in series [4], in series [2] and in series [3] was “inactive” in each case.

Consider `c1ccc2sc(-c3ccncc3)nc2c1`, for which the inhibition in series [1] was below 50%. The inhibition entry in series [2] and in series [3] was “inactive” throughout.

Take `Cc1ccccc1-c1nc2ccccc2s1`: the inhibition in series [1] is below 50%. For the same molecule, the inhibition result in series [2] and in series [3] was “inactive” each time.

As to `CCOc1cccc(-c2nc3ccccc3s2)c1O`, the inhibition result in series [4], in series [2] and in series [3] was “inactive” throughout.

Take `Clc1ccc(-c2nc3ccccc3s2)cc1Cl`: the inhibition in series [1] was below 50%. The inhibition result in series [2] and in series [3] was “inactive” throughout.

For the molecule `Brc1ccc(-c2nc3ccccc3s2)cc1`, the inhibition entry in series [4], in series [2] and in series [3] was “inactive” each time.

As for `COc1ccc(-c2nc3ccccc3s2)cc1OC`, the inhibition result in series [4], in series [2] and in series [3] was “inactive” in each case.

Regarding `Oc1cc(O)c(-c2nc3ccccc3s2)cc1O`, the half-maximal inhibitory concentration (IC50) at Beta-glucuronidase came out at 2.26 µM. Further, the inhibition entry in series [2] and in series [3] was “inactive” each time. Further, the Activity result in the series on 3T3-L1 and in the series on CC-1 was “Non-toxic” throughout. The Ratio IC50 in series [5] is 24.

As for `Oc1cccc(-c2nc3ccccc3s2)c1O`, the inhibition in series [1] is below 50%. Besides, the inhibition entry in series [2] and in series [3] was “inactive” each time.
